For three molecules, Ki results are on record in BindingDB's records for doi:10.1021/acs.biochem.6b00733 (Utrecht University, 2016).

What is called Ki is a measure of affinity in units of concentration, obtained from inhibition or displacement. A low value points to tighter binding.

The test concerns the target T1, Nicotinamide N-methyltransferase (Homo sapiens, UniProt P40261).
T1 sequence (P40261 whole entry): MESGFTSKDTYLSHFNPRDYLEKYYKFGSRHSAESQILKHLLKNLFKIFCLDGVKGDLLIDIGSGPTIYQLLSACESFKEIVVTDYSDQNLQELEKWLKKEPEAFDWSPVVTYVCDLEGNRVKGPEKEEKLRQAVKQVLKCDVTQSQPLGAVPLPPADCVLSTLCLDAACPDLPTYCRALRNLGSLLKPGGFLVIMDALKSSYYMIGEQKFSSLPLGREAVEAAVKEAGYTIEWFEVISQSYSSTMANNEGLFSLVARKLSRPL
The test is described as follows: NNMT Enzymatic Activity Assay. Particulars: pH 8.6; 37 °C. Here is the method: Enzyme activity assays were performed as previously described with NNMT (16.25 ug/mL, 550 nM) in 50 mM Tris buffer (pH 8.6) containing 1 mM DTT (all final concentrations). The enzyme was incubated with the substrate pyridine compound for 5 min at 37 °C using a heat block before the reaction was initiated by addition of AdoMet (for substrates that were not soluble in water, stocksolutions were prepared in DMSO and diluted to a final DMSO concentration of <5% in the assay mixture). […] For these screens, the final reagent concentrations were 100 uM AdoMet and 2.0 mM substrate and a series of time points were initially investigated (5, 15, 30, and 60 min). At each time point, 15 uL aliquots of the reaction mixture were taken and added to 70 uL of acetonitrile, which served to quench the reaction by causing precipitation of the enzyme.
In the case of `c1ccc2c(c1)CCNC2` [1,2,3,4-tetrahydroisoquinoline], the Ki is 4.7 mM.

The molecule `NC(=S)c1cccnc1` [thionicotinamide] displayed a Ki of 6.6 mM. The same measure for `NC(=O)c1cnc2ccccc2c1` [quinoline 3-carboxamide]: 9.7 mM.
